Consider five molecules from ChEMBL document CHEMBL4184237, “Cytotoxic oligophenols from the rhizome of Wikstroemia indica” (Bioorg Med Chem Lett, 2018).

Each structure is given as a SMILES string.

Data set [1] has as its system SW480. Kind of data set: Induction of apoptosis in human SW480 cells assessed as early apoptotic cells level incubated for 48 hrs by Annexin V-FITC and PI double staining based flow cytometry (reference value: 2.75%). Format: functional. A general note: Flow cytometry measures light scatter and fluorescence of single cells or particles in a stream.
In data set [2] the test system is T98G. Kind of data set: Induction of apoptosis in human T98G cells assessed as viable cells level incubated for 48 hrs by Annexin V-FITC and PI double staining based flow cytometry (reference value: 91.3%). The class given is functional.
For data set [3], the system named is SW480. In words: Induction of apoptosis in human SW480 cells assessed as necrotic cells level incubated for 48 hrs by Annexin V-FITC and PI double staining based flow cytometry (reference value: 1.17%). Format: functional.
Data set [4] relates to SW480. Kind of data set: Induction of apoptosis in human SW480 cells assessed as viable cells level incubated for 48 hrs by Annexin V-FITC and PI double staining based flow cytometry (reference value: 93.2%). Format: functional.
In the next data set the test system is U-87 MG. In words: Cytotoxicity against human U87 cells assessed as reduction in cell viability incubated for 24 hrs by CCK8 assay. The class given is functional, cell-based, U-87MG ATCC. (Tetrazolium assays rely on reduction of a dye to a coloured formazan, in cell work by metabolically active cells.)
Data set [5] has as its system SW480. Kind of data set: Cytotoxicity against human SW480 cells assessed as reduction in cell viability incubated for 24 hrs by CCK8 assay. Format: functional, cell-based. The following applies: SW480, 24 h.
Data set [6] has as its system T98G. In words: Cytotoxicity against human T98G cells assessed as reduction in cell viability incubated for 24 hrs by CCK8 assay. Format: functional, cell-based.
Data set [7] relates to T98G. Kind of data set: Induction of apoptosis in human T98G cells assessed as late apoptotic cells level incubated for 48 hrs by Annexin V-FITC and PI double staining based flow cytometry (reference value: 5.35%). The class given is functional.
Data set [8] deals with T98G. In words: Induction of apoptosis in human T98G cells assessed as necrotic cells level incubated for 48 hrs by Annexin V-FITC and PI double staining based flow cytometry (reference value: 1.66%). The class given is functional.
Data set [9] relates to SW480. Kind of data set: Induction of apoptosis in human SW480 cells assessed as late apoptotic cells level incubated for 48 hrs by Annexin V-FITC and PI double staining based flow cytometry (reference value: 2.09%). Format: functional.
Data set [10] deals with T98G. In words: Induction of apoptosis in human T98G cells assessed as early apoptotic cells level incubated for 48 hrs by Annexin V-FITC and PI double staining based flow cytometry (reference value: 1.79%). The class given is functional.
The subject of a further data set is HCT-116. Kind of data set: Cytotoxicity against human HCT116 cells assessed as reduction in cell viability incubated for 24 hrs by CCK8 assay. The class given is functional, cell-based. As to conditions: HCT-116, 24 h.
The subject of data set [11] is SW480. Kind of data set: Effect on GAPDH protein expression human SW480 cells assessed as GAPDH protein level incubated for 48 hrs by Western blot analysis relative to untreated control. As to conditions: sw480, 48 h. The class given is ADME, cell-based. (Immunoblotting shows a protein as a band on a membrane.)
Data set [12] deals with SW480. Kind of data set: Induction of apoptosis in human SW480 cells assessed as Bax protein level incubated for 48 hrs by Western blot analysis relative to untreated control. Format: functional.
In data set [13] the test system is T98G. Kind of data set: Induction of apoptosis in human T98G cells assessed as Bcl-xL protein level incubated for 48 hrs by Western blot analysis relative to untreated control. The class given is functional.
Data set [14] has as its system T98G. In words: Induction of apoptosis in human T98G cells assessed as Bax protein level incubated for 48 hrs by Western blot analysis relative to untreated control. Format: functional.
The subject of data set [15] is T98G. In words: Effect on GAPDH protein expression human T98G cells assessed as GAPDH protein level incubated for 48 hrs by Western blot analysis relative to untreated control. The class given is ADME, cell-based.
Data set [16] has as its system SW480. Kind of data set: Induction of apoptosis in human SW480 cells assessed as Bcl-xL protein level incubated for 48 hrs by Western blot analysis relative to untreated control. The class given is functional.

In general, IC50 refers to the concentration that gives 50% inhibition. `CC(=O)O[C@H]1C(=O)[C@@]2(C)[C@H]([C@H](OC(=O)c3ccccc3)[C@]3(O)C[C@H](OC(=O)[C@H](O)[C@@H](NC(=O)c4ccccc4)c4ccccc4)C(C)=C1C3(C)C)[C@]1(OC(C)=O)CO[C@@H]1C[C@@H]2O` [PACLITAXEL]: the Activity is listed as 45.6% in the data set on SW480 [1]; 25.6% in the data set with T98G [2]; 1.13% in the data set with SW480 [3]; 33.6% in the data set with SW480 [4]; 56.2% with T98G [7]; 3.23% in the data set on T98G [8]. Besides, the Activity in the data set on SW480 [9] is 14.7%; in the data set on T98G [10], 15%. For the same molecule, the IC50 in the data set on U-87 MG came to 4.67 µM; in the data set with SW480 [5], 0.19 µM; in the data set on T98G [6], 0.74 µM.
On to `O=c1ccc2ccc(Oc3cc4ccc(O[C@@H]5O[C@H](CO)[C@@H](O)[C@H](O)[C@H]5O)c(-c5c(O)ccc6ccc(=O)oc56)c4oc3=O)cc2o1`, for which the 50% inhibitory concentration (IC50) with U-87 MG, with SW480 [5], with T98G [6] and with HCT-116 was above 100 µM in each case.
Regarding `O=c1c(-c2c(O)cc3c(c2O)C[C@@H](O)[C@H](c2ccc(O)cc2)O3)c(-c2ccc(O)cc2)oc2cc(O)cc(O)c12`, the “fold change (FC)” value was found to be 0.9 with SW480 [11]; 2.3 with SW480 [12]; 0.7 with T98G [13]; 3.4 in the data set on T98G [14]; 1 in the data set on T98G [15]; 0.8 in the data set with SW480 [16]. The Activity with SW480 [1] is recorded as 34.2%; in the data set with T98G [2] it was 62.9%; with SW480 [3] it was 1.31%; with SW480 [4], 51.6%; in the data set with T98G [7], 25.4%; with T98G [8], 1.36%. Further, the Activity with SW480 [9] came to 12.9%; in the data set on T98G [10] it was 10.3%. The concentration for half-maximal inhibition (IC50) was determined as 35.7 µM in the data set on U-87 MG, 17.9 µM in the data set on SW480 [5], 30.6 µM with T98G [6] and 24.4 µM in the data set on HCT-116.
Regarding `O=c1c(-c2c(O)cc3c(c2O)C[C@H](O)[C@H](c2ccc(O)c(O)c2)O3)c(-c2ccc(O)cc2)oc2cc(O)cc(O)c12`, the “fold change (FC)” value in the data set on SW480 [11] was determined as 1; in the data set with SW480 [12], 1.9; in the data set on T98G [13], 0.4; in the data set with T98G [14], 4.1; in the data set on T98G [15], 1; in the data set on SW480 [16], 0.6. Further, the Activity in the data set with SW480 [1] was 18.5%; in the data set with T98G [2] it was 79.4%; in the data set with SW480 [3], 2.87%; with SW480 [4], 64.8%; in the data set on T98G [7], 15%; with T98G [8], 1.55%. In addition, the Activity with SW480 [9] is recorded as 13.7%; in the data set with T98G [10], 4.11%. The IC50 in the data set with U-87 MG is 88.4 µM; in the data set with SW480 [5], 71 µM; with T98G [6], 83.5 µM; with HCT-116, 87.6 µM.
On to `O=c1c(-c2c(O)cc3c(c2O)C[C@@H](O)[C@@H](c2ccc(O)c(O)c2)O3)c(-c2ccc(O)cc2)oc2cc(O)cc(O)c12`, for which the “fold change (FC)” value worked out at 1 in the data set with SW480 [11]; 2.4 in the data set with SW480 [12]; 0.7 in the data set on T98G [13]; 3.8 in the data set on T98G [14]; 0.9 in the data set with T98G [15]; 0.7 in the data set on SW480 [16]. The Activity is listed as 21.7% with SW480 [1]; 63.9% in the data set on T98G [2]; 0.909% with SW480 [3]; 68.1% in the data set with SW480 [4]; 17.2% with T98G [7]; 1.15% in the data set with T98G [8]. Further, the Activity with SW480 [9] worked out at 9.3%; in the data set with T98G [10], 17.8%. Besides, the IC50 was found to be 32.5 µM in the data set with U-87 MG, 30.4 µM in the data set on SW480 [5], 27.3 µM in the data set with T98G [6] and 28.7 µM in the data set with HCT-116.
